Assay results taken from ChEMBL document CHEMBL4229379, “Synthesis and structure-activity relationship of novel bisindole amidines active against MDR Gram-positive and Gram-negative bacteria” (Eur J Med Chem, 2018).
Converted amounts (≈) assume the structure as drawn.

Key:
Escherichia coli [1] = experiment: Antibacterial activity against extended-spectrum beta-lactamase deficient Escherichia coli 12-14 after 18 hrs by CLSI broth microdilution method; type: functional; conditions: 12-14, 18 h
Klebsiella pneumoniae [2] = experiment: Antibacterial activity against extended-spectrum beta-lactamase harboring Klebsiella pneumoniae 12-8 after 18 hrs by CLSI broth microdilution method; type: functional; conditions: 12-8, 18 h
Enterobacter cloacae = experiment: Antibacterial activity against Enterobacter cloacae ATCC 43560 after 18 hrs by CLSI broth microdilution method; type: functional; conditions: ATCC 43560, 18 h
Enterococcus faecalis [3] = experiment: Antibacterial activity against vancomycin-resistant Enterococcus faecalis 09-9 after 18 hrs by CLSI broth microdilution method; type: functional; conditions: 09-9, 18 h
Pseudomonas aeruginosa [4] = experiment: Antibacterial activity against Pseudomonas aeruginosa PAO1 after 18 hrs by CLSI broth microdilution method; type: functional; conditions: PAO1, 18 h
Enterococcus faecalis [5] = experiment: Antibacterial activity against vancomycin-resistant Enterococcus faecalis ATCC 51299 after 18 hrs by CLSI broth microdilution method; type: functional; conditions: ATCC 51299, 18 h
[6] = system: Stenotrophomonas maltophilia; experiment: Antibacterial activity against Stenotrophomonas maltophilia ATCC 13636 after 18 hrs by CLSI broth microdilution method; type: functional; conditions: ATCC 13636, 18 h
Klebsiella pneumoniae [7] = experiment: Antibacterial activity against extended-spectrum beta-lactamase harboring Klebsiella pneumoniae ATCC 700603 after 18 hrs by CLSI broth microdilution method; type: functional; conditions: Klebsiella pneumoniae, 700603, 18 h
[8] = system: Staphylococcus epidermidis; experiment: Antibacterial activity against methicillin-sensitive Staphylococcus epidermidis ATCC 12228 after 18 hrs by CLSI broth microdilution method; type: functional; conditions: ATCC 12228, 18 h
Enterococcus faecium [9] = experiment: Antibacterial activity against vancomycin-resistant Enterococcus faecium ATCC 700221 after 18 hrs by CLSI broth microdilution method; type: functional; conditions: ATCC 700221, 18 h
Providencia rettgeri = experiment: Antibacterial activity against Providencia rettgeri ATCC 31052 after 18 hrs by CLSI broth microdilution method; type: functional; conditions: ATCC 31052, 18 h
Staphylococcus aureus [10] = experiment: Antibacterial activity against methicillin-sensitive Staphylococcus aureus 15 after 18 hrs by CLSI broth microdilution method; type: functional; conditions: Staphylococcus aureus, 15, 18 h
Enterococcus faecium [11] = experiment: Antibacterial activity against vancomycin-sensitive Enterococcus faecium 12-3 after 18 hrs by CLSI broth microdilution method; type: functional; conditions: 12-3, 18 h
Proteus vulgaris = experiment: Antibacterial activity against Proteus vulgaris ATCC 29905 after 18 hrs by CLSI broth microdilution method; type: functional; conditions: ATCC 29905, 18 h
Klebsiella pneumoniae [12] = experiment: Antibacterial activity against extended-spectrum beta-lactamase deficient Klebsiella pneumoniae 12-4 after 18 hrs by CLSI broth microdilution method; type: functional; conditions: 12-4, 18 h
Enterococcus faecalis [13] = experiment: Antibacterial activity against vancomycin-sensitive Enterococcus faecalis ATCC 29212 after 18 hrs by CLSI broth microdilution method; type: functional; conditions: ATCC 29212, 18 h
Staphylococcus aureus [14] = experiment: Antibacterial activity against methicillin-sensitive Staphylococcus aureus ATCC 29213 after 18 hrs by CLSI broth microdilution method; type: functional; conditions: ATCC 29213, 18 h
[15] = system: Staphylococcus epidermidis; experiment: Antibacterial activity against methicillin-sensitive Staphylococcus epidermidis 12-6 after 18 hrs by CLSI broth microdilution method; type: functional; conditions: 12-6, 18 h
[16] = Cytotoxicity against HEK293T cells assessed as reduction in cell viability after 48 hrs by MTS assay; type: cell-based, HEK-293T; conditions: human
Escherichia coli [17] = experiment: Antibacterial activity against extended-spectrum beta-lactamase harboring Escherichia coli 12-15 after 18 hrs by CLSI broth microdilution method; type: functional; conditions: 12-15, 18 h
Klebsiella aerogenes = experiment: Antibacterial activity against Enterobacter aerogenes ATCC 13048 after 18 hrs by CLSI broth microdilution method; type: functional; conditions: ATCC 13048, 18 h
Klebsiella pneumoniae [18] = experiment: Antibacterial activity against extended-spectrum beta-lactamase deficient Klebsiella pneumoniae 7 after 18 hrs by CLSI broth microdilution method; type: functional; conditions: Klebsiella pneumoniae, 7, 18 h
Staphylococcus aureus [19] = experiment: Antibacterial activity against methicillin-sensitive Staphylococcus aureus 12-28 after 18 hrs by CLSI broth microdilution method; type: functional; conditions: 12-28, 18 h
Enterococcus faecium [20] = experiment: Antibacterial activity against vancomycin-resistant Enterococcus faecium 12-1 after 18 hrs by CLSI broth microdilution method; type: functional; conditions: 12-1, 18 h
Escherichia coli [21] = experiment: Antibacterial activity against extended-spectrum beta-lactamase deficient Escherichia coli ATCC 25922 after 18 hrs by CLSI broth microdilution method; type: functional; conditions: ATCC 25922, 18 h
Staphylococcus aureus [22] = experiment: Antibacterial activity against methicillin-resistant Staphylococcus aureus ATCC 33591 after 18 hrs by CLSI broth microdilution method; type: functional; conditions: ATCC 33591, 18 h
Staphylococcus aureus [23] = experiment: Antibacterial activity against methicillin-resistant Staphylococcus aureus 12-33 after 18 hrs by CLSI broth microdilution method; type: functional; conditions: 12-33, 18 h
[24] = system: Staphylococcus epidermidis; experiment: Antibacterial activity against methicillin-resistant Staphylococcus epidermidis 12-8 after 18 hrs by CLSI broth microdilution method; type: functional; conditions: 12-8, 18 h
Escherichia coli [25] = experiment: Antibacterial activity against extended-spectrum beta-lactamase deficient Escherichia coli 1515 after 18 hrs by CLSI broth microdilution method; type: functional; conditions: Escherichia coli, 1515, 18 h
Pseudomonas aeruginosa [26] = experiment: Antibacterial activity against Pseudomonas aeruginosa 12-16 after 18 hrs by CLSI broth microdilution method; type: functional; conditions: 12-16, 18 h
[27] = system: Acinetobacter calcoaceticus; experiment: Antibacterial activity against Acinetobacter calcoaceticus ATCC 19606 after 18 hrs by CLSI broth microdilution method; type: functional; conditions: ATCC 19606, 18 h
Proteus mirabilis = experiment: Antibacterial activity against Proteus mirabilis 12-6 after 18 hrs by CLSI broth microdilution method; type: functional; conditions: 12-6, 18 h
Enterococcus faecalis [28] = experiment: Antibacterial activity against vancomycin-sensitive Enterococcus faecalis 12-5 after 18 hrs by CLSI broth microdilution method; type: functional; conditions: 12-5, 18 h
Serratia marcescens = experiment: Antibacterial activity against Serratia marcescens ATCC 21074 after 18 hrs by CLSI broth microdilution method; type: functional; conditions: ATCC 21074, 18 h
Pseudomonas aeruginosa [29] = experiment: Antibacterial activity against Pseudomonas aeruginosa ATCC 27853 after 18 hrs by CLSI broth microdilution method; type: functional; conditions: ATCC 27853, 18 h
Klebsiella pneumoniae [30] = experiment: Antibacterial activity against new delhi metallo-beta-lactamase-1 harboring Klebsiella pneumoniae ATCC BAA-2146 after 18 hrs by CLSI broth microdilution method; type: functional; conditions: ATCC BAA-2146, 18 h
Citrobacter freundii = experiment: Antibacterial activity against Citrobacter freundii ATCC 43864 after 18 hrs by CLSI broth microdilution method; type: functional; conditions: ATCC 43864, 18 h

SMILES	MIC (Escherichia coli [1])	MIC (Klebsiella pneumoniae [2])	MIC (Enterobacter cloacae)	MIC (Enterococcus faecalis [3])	MIC (Pseudomonas aeruginosa [4])	MIC (Enterococcus faecalis [5])	MIC [6]	MIC (Klebsiella pneumoniae [7])	MIC [8]	MIC (Enterococcus faecium [9])	MIC (Providencia rettgeri)	MIC (Staphylococcus aureus [10])	MIC (Enterococcus faecium [11])	MIC (Proteus vulgaris)	MIC (Klebsiella pneumoniae [12])	MIC (Enterococcus faecalis [13])	MIC (Staphylococcus aureus [14])	MIC [15]	CC50 at 48 h [16]	MIC (Escherichia coli [17])	further results
N=C(c1ccc2cc(-c3ccc(-c4cc5ccc(C(=N)N6CCOCC6)cc5[nH]4)cc3)[nH]c2c1)N1CCOCC1	4 µg/mL (≈ 7.51 µM)	8 µg/mL (≈ 15 µM)	4 µg/mL (≈ 7.51 µM)	4 µg/mL (≈ 7.51 µM)	> 128 µg/mL	4 µg/mL (≈ 7.51 µM)	> 128 µg/mL	16 µg/mL (≈ 30 µM)	0.5 µg/mL (≈ 0.939 µM)	4 µg/mL (≈ 7.51 µM)	8 µg/mL (≈ 15 µM)	0.5 µg/mL (≈ 0.939 µM)	4 µg/mL (≈ 7.51 µM)	8 µg/mL (≈ 15 µM)	16 µg/mL (≈ 30 µM)	4 µg/mL (≈ 7.51 µM)	1 µg/mL (≈ 1.88 µM)	0.5 µg/mL (≈ 0.939 µM)	16.4 µg/mL (≈ 30.9 µM)	4 µg/mL (≈ 7.51 µM)	MIC (Klebsiella aerogenes): 8 µg/mL (≈ 15 µM); MIC (Klebsiella pneumoniae [18]): 8 µg/mL (≈ 15 µM); MIC (Staphylococcus aureus [19]): 0.5 µg/mL (≈ 0.939 µM); MIC (Enterococcus faecium [20]): 2 µg/mL (≈ 3.75 µM); MIC (Escherichia coli [21]): 4 µg/mL (≈ 7.51 µM); MIC (Staphylococcus aureus [22]): 0.5 µg/mL (≈ 0.939 µM); MIC (Staphylococcus aureus [23]): 0.5 µg/mL (≈ 0.939 µM); MIC [24]: 0.5 µg/mL (≈ 0.939 µM); MIC (Escherichia coli [25]): 4 µg/mL (≈ 7.51 µM); MIC (Pseudomonas aeruginosa [26]): > 128 µg/mL; MIC [27]: 32 µg/mL (≈ 60.1 µM); MIC (Proteus mirabilis): 32 µg/mL (≈ 60.1 µM); MIC (Enterococcus faecalis [28]): 8 µg/mL (≈ 15 µM); MIC (Serratia marcescens): > 128 µg/mL; MIC (Pseudomonas aeruginosa [29]): > 128 µg/mL; MIC (Klebsiella pneumoniae [30]): 8 µg/mL (≈ 15 µM); MIC (Citrobacter freundii): 4 µg/mL (≈ 7.51 µM)
CNC(=N)c1ccc2cc(-c3cncc(-c4cc5ccc(C(=N)NC)cc5[nH]4)c3)[nH]c2c1	> 64 µg/mL	> 64 µg/mL	> 64 µg/mL	> 64 µg/mL	> 64 µg/mL	> 64 µg/mL	> 64 µg/mL	> 64 µg/mL	4 µg/mL (≈ 9.49 µM)	> 64 µg/mL	> 64 µg/mL	> 64 µg/mL	> 64 µg/mL	> 64 µg/mL	> 64 µg/mL	> 64 µg/mL	> 64 µg/mL	8 µg/mL (≈ 19 µM)	> 100 µg/mL	> 64 µg/mL	MIC (Klebsiella aerogenes): > 64 µg/mL; MIC (Klebsiella pneumoniae [18]): > 64 µg/mL; MIC (Staphylococcus aureus [19]): > 64 µg/mL; MIC (Enterococcus faecium [20]): > 64 µg/mL; MIC (Escherichia coli [21]): > 64 µg/mL; MIC (Staphylococcus aureus [22]): > 64 µg/mL; MIC (Staphylococcus aureus [23]): > 64 µg/mL; MIC [24]: 8 µg/mL (≈ 19 µM); MIC (Escherichia coli [25]): > 64 µg/mL; MIC (Pseudomonas aeruginosa [26]): > 64 µg/mL; MIC [27]: > 64 µg/mL; MIC (Proteus mirabilis): > 64 µg/mL; MIC (Enterococcus faecalis [28]): > 64 µg/mL; MIC (Serratia marcescens): > 64 µg/mL; MIC (Pseudomonas aeruginosa [29]): > 64 µg/mL; MIC (Klebsiella pneumoniae [30]): > 64 µg/mL; MIC (Citrobacter freundii): > 64 µg/mL
CN(C)C(=N)c1ccc2cc(-c3cnc(-c4cc5ccc(C(=N)N(C)C)cc5[nH]4)s3)[nH]c2c1	2 µg/mL (≈ 4.39 µM)	4 µg/mL (≈ 8.78 µM)	2 µg/mL (≈ 4.39 µM)	0.5 µg/mL (≈ 1.1 µM)	> 64 µg/mL	1 µg/mL (≈ 2.19 µM)	16 µg/mL (≈ 35.1 µM)	8 µg/mL (≈ 17.6 µM)	0.12 µg/mL (≈ 0.263 µM)	1 µg/mL (≈ 2.19 µM)	2 µg/mL (≈ 4.39 µM)	0.25 µg/mL (≈ 0.549 µM)	2 µg/mL (≈ 4.39 µM)	4 µg/mL (≈ 8.78 µM)	4 µg/mL (≈ 8.78 µM)	1 µg/mL (≈ 2.19 µM)	0.25 µg/mL (≈ 0.549 µM)	0.125 µg/mL (≈ 0.274 µM)	2.01 µg/mL (≈ 4.41 µM)	2 µg/mL (≈ 4.39 µM)	MIC (Klebsiella aerogenes): 4 µg/mL (≈ 8.78 µM); MIC (Klebsiella pneumoniae [18]): 4 µg/mL (≈ 8.78 µM); MIC (Staphylococcus aureus [19]): 0.5 µg/mL (≈ 1.1 µM); MIC (Enterococcus faecium [20]): 1 µg/mL (≈ 2.19 µM); MIC (Escherichia coli [21]): 2 µg/mL (≈ 4.39 µM); MIC (Staphylococcus aureus [22]): 0.25 µg/mL (≈ 0.549 µM); MIC (Staphylococcus aureus [23]): 1 µg/mL (≈ 2.19 µM); MIC [24]: 0.25 µg/mL (≈ 0.549 µM); MIC (Escherichia coli [25]): 2 µg/mL (≈ 4.39 µM); MIC (Pseudomonas aeruginosa [26]): > 64 µg/mL; MIC [27]: 16 µg/mL (≈ 35.1 µM); MIC (Proteus mirabilis): 8 µg/mL (≈ 17.6 µM); MIC (Enterococcus faecalis [28]): 2 µg/mL (≈ 4.39 µM); MIC (Serratia marcescens): 8 µg/mL (≈ 17.6 µM); MIC (Pseudomonas aeruginosa [29]): 16 µg/mL (≈ 35.1 µM); MIC (Klebsiella pneumoniae [30]): 4 µg/mL (≈ 8.78 µM); MIC (Citrobacter freundii): 4 µg/mL (≈ 8.78 µM)
